# Source: patent US20110200685A1, “Methods and compositions for the reduction of pathogenic microorganisms from meat and poultry carcasses, trim and offal” (priority 2010, published 2011)
# Several values for one entry are separate records, joined by “and”; a condition that tells them apart may be missing. Equal values may be shown once.
# What was measured:
# [1] = Relative stability (decay) of HOBr from NaOCl-activated HBr vs DBDMH, 600 ppm as bromine (Example 4); assay type: physicochemical; details: HOBr 600 ppm as bromine; stored in the dark; 70-75° F.
# Protocol: The relative stability of HOBr derived from NaOCl-activated HBr and HOBr derived from DBDMH was compared side-by-side. A solution of HOBr (600 ppm as bromine) was used in the comparison because this is the amount of bromine that typically exits the commercial DBDMH feeders when the solid product is dissolved. The activity of the solutions was measured using the DPD Total chlorine colorimetric method. Solutions were stored in the dark to prevent photodegradation due to UV light exposure. The temperature ranged from 70-75° F. for the duration of the test.
# The HOBr decay profiles for the 600 ppm (as bromine) solutions derived from NaOCl-activated HBr solution and DBDMH solution are plotted in FIG. 2.
# Graphs of ln(Co/Ct) where Co is the initial concentration of HOBr and Ct is the concentration at day t were close to straight lines for both the DBDMH and NaOCl-activated HBr derived solutions. (the regression analysis correlation coefficient, R^2 values were close to 1). The R^2 value for the DBDMH and the NaOCl-activated HBr solutions were 0.9251 and 0.9302, respectively. […]
# The half-lives of HOBr from the HBr-activated solution and the DBDMH solution were calculated by […]—the natural logarithm (ln) of 2.
# [2] = test system: E. coli O157:H7; test: Microbiological quality of wash water after spraying inoculated beef and pork (Example 9); assay type: cell-based; details: for log10 (remaining): 30 second spray 50 psi; for log10 reduction: vs city water control
# Source text: (§1) The microbiological efficacy of the HOBr derived from NaOCl/HBr and the HOBr from DBDMH were compared against a culture of E. coli O157:H7 bacteria that was sprayed onto the surface of beef and pork meat.
# (§2) Meat processing facilities commonly treat beef and pork with antimicrobial solutions for about 30 seconds by spraying the beef and pork carcasses and trim with the solution in a spray cabinet. To simulate this process, a small spray cabinet was constructed for the study. A 30-gallon, open-headed drum was equipped with three ½ inch PVC section of pipe that were vertically oriented and positioned 120 degrees apart. Each section of pipe had two spay nozzles four inches apart positioned to form a spray zone in the center of the drum. An air-assisted diaphragm pump was used to deliver the test solution into the three ½ inch PVC pipe sections and through the nozzles. A regulator on the air pump was used to adjust the pressure of the spray as necessary.
# (§3) A stock solution of a field strain of E. coli O157:H7 was incubated at 35° C. for four days in Sigma Nutrient Broth for microbial culture. Three daily, consecutive transfers of the inoculums were made to ensure that a sufficient concentration of E. coli O157:H7 was available for the study. The broth and bacteria mixture was then centrifuged leaving the E. coli O157:H7 to be re-suspended in approximately 500 ml Butterfield's Buffer. The E. coli O157:H7 buffer solution was serially diluted and plated on 3M Petrifilm E. coli plates, incubated at 35° C. for 48 hours where it was determined that the E. coli O157:H7 population was 6.76×10^7 CFU/ml or log10 7.83.
# (§4) In summary: • Beef— • a) Control: Three beef pieces—city water • b) DBDMH: Three beef pieces—288 ppm Br2 • c) NaOCl/HBr: Three beef pieces—279 ppm Br2 • Pork— • a) Control: Three pork pieces—city water • b) DBDMH: Three pork pieces—288 ppm Br2 • c) NaOCl/HBr: Three pork pieces—279 ppm Br2
# (§5) During the 30 second spray, a piece of meat was held by a hook and moved up and down in the spray zone of the spray cabinet with rotation to ensure even distribution of the solution over the surface. The spray pressure was set at 50 psi.
# Immediately after each piece was sprayed, a sample of the wash solution was taken from the bottom of the spray cabinet drum for microbial analysis. The solutions were plated on 3M Petrifilm E. coli plates and incubated at 35° C. for 48 hours.
# [3] = test system: E. coli O157:H7; test: Surface-associated bacteria remaining on beef and pork after 30 second spray (Example 9); assay type: cell-based; details: for log10 (remaining): 30 second spray 50 psi, DBDMH 288 ppm Br2, NaOCl/HBr 279 ppm Br2; for % reduction / log10 reduction: vs city water control
# Source text: as §1, §2, §3
# The type of beef used was chuck roast, which was cut into nine equal pieces. The average weight of beef piece used in this portion of the study was 257.1 g. Nine boneless pork chops of average weight of pork 142.9 g were used.
# as §4, §5
# After spraying, each meat piece was gently shaken three times to remove excess liquid and returned to a new, sterile bag containing 200 g of city water. The bag was sealed and then vigorously agitated manually for one minute to dislodge any viable surface-associated bacteria from the meat and into the aqueous phase. The water was then plated using 3M Petrifilm E. coli plates and incubated at 35° C. for 48 hours, after which the plates were enumerated. All plating for E. coli was performed within five minutes of completing the spray.
# [4] = test system: Salmonella typhimurium (ATCC 14028); test: Surface-associated bacteria remaining on chicken after 30 second spray (Example 10); assay type: cell-based; details: chicken halves
# Source text: In the processing of poultry, birds that are deemed by the USDA inspectors to have undesirable levels of fecal contamination are directed to a dedicated cabinet where they are sprayed with an antimicrobial solution. If the fecal contamination were not removed, birds harboring the pathogenic Salmonella organism would enter the human food chain. Therefore, the microbiological efficacy of the HOBr derived from NaOCl/HBr and the HOBr from DBDMH were compared on chicken inoculated with a culture of Salmonella typhimurium (ATCC 14028) bacteria.
# A stock solution of Salmonella typhimurium (ATCC 14028) was incubated at 35° C. for four days in Sigma Nutrient Broth for microbial culture. Three daily, consecutive transfers of the inoculums were made to ensure that a sufficient concentration of Salmonella typhimurium was available for the study. The broth and bacteria mixture was then centrifuged leaving the Salmonella typhimurium to be re-suspended in approximately 500 ml Butterfield's Buffer. The Salmonella buffer solution was serially diluted and plated on 3M Petrifilm Enterobacteriaceae Plates, incubated at 35° C. for 24 hours where it was determined that the Salmonella typhimurium population was 2.34×10^8 or log10 8.37 CFU/ml (colony forming units per milliliter).
# Three whole, uncooked chickens were purchased from a local grocer. The average weight of the whole chickens was 5.30 pounds. The organs were removed from each chicken and subsequently, each chicken was cut evenly in half down the back leaving six equal halves which contained a back, breast, thigh and leg. The chicken halves were then patted dry with a paper towel, sprayed liberally on all sides and marinated with Salmonella typhimurium—Butterfield's Buffer solution inoculums for two hours, turning occasionally.
# The six chicken pieces were introduced to the spray cabinet used in Example 9. […] The concentration of HOBr was measured prior to spraying the meat pieces by using a HACH DR/700 Colorimeter and HACH 10 ml DPD Total Chlorine pillow packets. […]
# [5] = test system: Salmonella typhimurium (ATCC 14028); test: Surface-associated bacteria remaining on chicken after 40 minute chilled immersion (Example 11); assay type: cell-based; details: chicken halves
# Protocol: Most poultry processing facilities cool the product by submerging it for 30-60 minutes in a chiller tank containing an antimicrobial chemical. The chilled water solution is typically around 35° F. (Food Contact Notification, nos. 334 and 453). Therefore, the microbiological efficacy of the HOBr derived from NaOCl-activated HBr and the HOBr from DBDMH were compared by immersing chickens inoculated with a culture of Salmonella typhimurium (ATCC 14028) bacteria. An inoculum was prepared in the same manner as described in Example 10. This time the inoculum yielded a Salmonella typhimurium population of 3.78×10^8 CFU/ml, or log10 8.58. This was then sprayed onto both sides of the chicken halves and left to marinate for two hours. The average weight of the whole chicken used in this portion of the study was 5.20 lbs.
# Each test solution was made with chilled water immediately prior to use. For each test solution and the control, two chicken halves were placed in a plastic storage bin containing one quart of test solution. A sterilized ice pack was placed in the bin to accompany the chicken and maintain water temperature. The chicken halves were allowed to sit in the chilled solution for 40 minutes at 35° F., and were turned every five minutes while gently agitating the storage bin. All containers were covered using aluminum foil to prevent degradation of the active ingredients by UV light.
# In summary: • a) Control: Two chicken halves—city water • b) DBDMH: Two chicken halves—95 ppm as total bromine • c) NaOCl/HBr: Two chicken halves—100 ppm as total bromine
# After spraying, each chicken half was gently shaken three times to remove excess liquid and returned to a new, sterile bag. 300 g of city water was introduced to the bag and the bag was tumbled vigorously for one minute to dislodge viable surface-associated Salmonella bacteria. The water left at the bottom of the bag was plated using 3M Petrifilm Enterobacteriaceae Plates and incubated at 35° C. for 24 hours, upon which the plates were enumerated.
# [6] = Octanol-Water Partition Coefficient of HOBr (Example 13); assay type: physicochemical
# Protocol: In order to quantify the lipophilicity of HOBr solutions prepared from NaOCl-activated HBr, the Octanol-Water Partition Coefficient was determined.
# The Octanol-Water Partition Coefficient is defined as:
# Pow=Octanol-Water Partition Coefficient. Commonly the logarithm of this number is reported as Log Pow
# A high concentration of a HOBr solution was prepared by introducing sufficient NaOCl to activate 3.34 ml 48% HBr in 900 ml RO water until the pH was 7.23. By iodometric titration, the solution was determined to contain 5625 ppm as Br2. The slightly yellow activated solution (25 ml) was poured into an Erlenmeyer flask containing octanol (25 ml). This was mixed for two minutes using a high-speed magnetic stirrer after which the two phases were allowed to separate. All of the yellow color had phase-separated into the top octanol layer. […] The Pow was calculated to be 1.97. This was repeated for lower concentrations of HOBr by preparing a stock solution of 300 ppm as Br2 using 0.2 ml 48% HBr in 900 ml RO water and adding sufficient NaOCl bleach until the pH was 7.33. From the 300 ppm as Br2 stock solution, solutions of 200 and 100 ppm as Br2 were prepared.
# A saturated solution of DBDMH was prepared by slurrying DBDMH (1 g) powder in RO water (99 g) and stirring rapidly for 20 minutes. Undissolved solids were removed by gravity filtration. By iodometric titration, the solution was determined to contain 1170 ppm as Br2. The DBDMH solution (25 ml) was poured into an Erlenmeyer flask containing octanol (25 ml). This was mixed for two minutes using a high-speed magnetic stirrer after which the two phases were allowed to separate. […] The Pow was calculated to be 0.808. The 1170 ppm as Br2 stock solution was then used to prepare solution of 300, 200 and 100 ppm as Br2 solutions.
# [7] = 30 second spray, vs city water control
# [8] = immersion 40 minutes, vs city water control
# [9] = Concentration HOBr (as Br2) 100
# [10] = Concentration HOBr (as Br2) 200
# [11] = Concentration HOBr (as Br2) 300
# [12] = Concentration HOBr (as Br2) 1170 (saturated solution)
smiles,measurement,setting,value
"CC1(C)C(=O)N(Br)C(=O)N1Br [DBDMH, 1,3-dibromo-5,5-dimethylhydantoin]",rate constant of HOBr decay,[1],0.051 day⁻¹
same,log10 (remaining),"[2]; beef, DBDMH 288 ppm Br2, NaOCl/HBr 279 ppm Br2, control 5.01",0.48 log10
same,log10 reduction,[2]; beef,4.53 log10
same,log10 (remaining),"[2]; pork, DBDMH 288 ppm Br2, NaOCl/HBr 279 ppm Br2, control 5.18",0.99 log10
same,log10 reduction,[2]; pork,4.19 log10
same,log10 (remaining),"[3]; on beef, control 6.15",5.56 log10
same,% reduction,[3]; on beef,74.30%
same,log10 reduction,[3]; on beef,0.59 log10
same,log10 (remaining),"[3]; on pork, control 6.43",5.71 log10
same,% reduction,[3]; on pork,80.95%
same,log10 reduction,[3]; on pork,0.72 log10
same,log10 (remaining),"[4]; 30 second spray 40 psi, DBDMH 295 ppm, NaOCl/HBr 275 ppm as total bromine, control 6.15",5.85 log10 CFU/ml
same,% reduction,[4]; [7],49.88%
same,log10 reduction,[4]; [7],0.30 log10 CFU/ml
same,log10 (remaining),"[5]; immersion 40 minutes at 35° F., DBDMH 95 ppm, NaOCl/HBr 100 ppm as total bromine, control 6.54",6.25 log10 CFU/ml
same,% reduction,[5]; [8],48.71%
same,log10 reduction,[5]; [8],0.29 log10 CFU/ml
same,Concentration in aqueous phase after partitioning into octanol,[6]; [9],19.125 ppm as Br2
same,Pow HOBr,[6]; [9],0.645
same,Concentration in aqueous phase after partitioning into octanol,[6]; [10],34.99 ppm as Br2
same,Pow HOBr,[6]; [10],0.719
same,Concentration in aqueous phase after partitioning into octanol,[6]; [11],50.74 ppm as Br2
same,Pow HOBr,[6]; [11],0.731
same,Concentration in aqueous phase after partitioning into octanol,[6]; [12],159.7 ppm as Br2 and 157.5 ppm as Br2
same,Pow HOBr,[6]; [12],0.808
